# Calls of active or inactive are those of the source.
# Key:
# [1] = Trypanosoma cruzi growth suppression in host cells – NIH3T3 host cells, beta-gal luminescence, confirmation (AID 2044); format: functional, cell-based;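 note: intracellular parasites grown in NIH/3T3 mouse fibroblasts as host cells; luminescent beta-galactosidase reporter signal from transgenic T. cruzi replicating inside host cells; inhibitors lower the luminescence signal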
# [2] = NIH3T3 cell viability loss – ATP luminescence, mouse fibroblasts, counter-screen, dose response (AID 2010); format: functional, cell-based;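 note: cells exposed to compound for about 90 hours before reading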
# [3] = target: Cytochrome P450 2C19 (Homo sapiens, UniProt P33261); assay: Cytochrome panel assay with activity outcomes. Panel member name: p450-cyp2c19 Compounds with AC50 equal or less than 10 uM are considered active; format: functional
# Cytochrome P450 2C19, sequence (P33261 whole entry): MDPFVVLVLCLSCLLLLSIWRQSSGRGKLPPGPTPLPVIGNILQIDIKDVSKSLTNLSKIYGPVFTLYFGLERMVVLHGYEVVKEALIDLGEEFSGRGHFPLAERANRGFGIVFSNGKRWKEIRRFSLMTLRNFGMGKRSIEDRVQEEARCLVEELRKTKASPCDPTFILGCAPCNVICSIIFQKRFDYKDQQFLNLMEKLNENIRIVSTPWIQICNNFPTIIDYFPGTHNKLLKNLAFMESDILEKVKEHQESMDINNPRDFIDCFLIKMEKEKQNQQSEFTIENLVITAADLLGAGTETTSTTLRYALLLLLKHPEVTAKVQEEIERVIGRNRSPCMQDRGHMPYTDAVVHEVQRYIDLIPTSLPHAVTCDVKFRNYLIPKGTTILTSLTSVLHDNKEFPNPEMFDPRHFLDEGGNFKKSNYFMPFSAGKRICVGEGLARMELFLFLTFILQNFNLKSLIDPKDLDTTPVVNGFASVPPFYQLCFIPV
# [4] = target: Cytochrome P450 2C9 (Homo sapiens, UniProt P11712)
# Cytochrome P450 2C9, sequence (P11712 whole entry): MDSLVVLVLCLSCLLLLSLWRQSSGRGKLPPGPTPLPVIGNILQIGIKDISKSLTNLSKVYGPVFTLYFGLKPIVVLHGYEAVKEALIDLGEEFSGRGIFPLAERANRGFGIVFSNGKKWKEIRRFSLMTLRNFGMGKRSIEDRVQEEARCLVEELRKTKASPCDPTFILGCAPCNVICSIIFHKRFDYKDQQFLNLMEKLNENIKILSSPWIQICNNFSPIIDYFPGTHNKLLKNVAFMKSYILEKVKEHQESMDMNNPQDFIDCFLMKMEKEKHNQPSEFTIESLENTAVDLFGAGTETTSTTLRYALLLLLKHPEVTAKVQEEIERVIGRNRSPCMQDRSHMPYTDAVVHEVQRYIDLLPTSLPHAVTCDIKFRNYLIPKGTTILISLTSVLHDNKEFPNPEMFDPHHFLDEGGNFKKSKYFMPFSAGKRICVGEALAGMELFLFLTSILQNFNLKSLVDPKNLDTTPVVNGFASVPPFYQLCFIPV
# [5] = P. falciparum Dd2 growth inhibitors, dose response, SYBR Green, cherry-picked samples (AID 1159567); format: functional, cell-based
# [6] = toxicity to human hepatoma HepG2 cells – cell-based, cherry-picked samples, cytotoxicity control, dose response (AID 1159577); format: functional
# [7] = target: T1, DNA repair and recombination protein RAD54-like (Homo sapiens, UniProt Q92698); assay: RAD54 Holliday junction migration blockers – biochemical, fluorescence, cherry-picked samples, dose series, confirmation (AID 651657); format: functional
# T1 sequence (Q92698 whole entry): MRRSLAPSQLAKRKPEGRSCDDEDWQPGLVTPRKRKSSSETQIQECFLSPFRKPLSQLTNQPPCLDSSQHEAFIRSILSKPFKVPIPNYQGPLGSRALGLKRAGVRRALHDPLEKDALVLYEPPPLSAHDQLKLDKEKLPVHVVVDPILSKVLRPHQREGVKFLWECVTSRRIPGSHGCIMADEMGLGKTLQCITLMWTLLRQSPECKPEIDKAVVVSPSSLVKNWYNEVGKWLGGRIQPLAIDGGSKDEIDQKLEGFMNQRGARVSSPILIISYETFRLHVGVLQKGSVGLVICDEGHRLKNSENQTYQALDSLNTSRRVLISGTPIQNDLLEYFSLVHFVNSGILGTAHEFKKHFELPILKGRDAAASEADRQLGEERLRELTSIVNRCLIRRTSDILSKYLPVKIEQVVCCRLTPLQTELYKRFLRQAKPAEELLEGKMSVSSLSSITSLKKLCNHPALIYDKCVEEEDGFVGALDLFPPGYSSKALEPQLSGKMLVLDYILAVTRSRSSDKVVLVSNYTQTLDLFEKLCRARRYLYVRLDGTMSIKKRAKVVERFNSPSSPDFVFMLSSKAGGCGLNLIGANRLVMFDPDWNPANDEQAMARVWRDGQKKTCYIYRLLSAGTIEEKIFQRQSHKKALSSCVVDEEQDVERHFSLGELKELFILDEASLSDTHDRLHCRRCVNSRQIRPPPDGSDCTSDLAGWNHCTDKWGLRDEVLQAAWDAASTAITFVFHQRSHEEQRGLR
# [8] = cells; format: functional
# [9] = target: T2, Protein skinhead-1 (Caenorhabditis elegans, UniProt P34707); format: functional
# T2 sequence (P34707 whole entry): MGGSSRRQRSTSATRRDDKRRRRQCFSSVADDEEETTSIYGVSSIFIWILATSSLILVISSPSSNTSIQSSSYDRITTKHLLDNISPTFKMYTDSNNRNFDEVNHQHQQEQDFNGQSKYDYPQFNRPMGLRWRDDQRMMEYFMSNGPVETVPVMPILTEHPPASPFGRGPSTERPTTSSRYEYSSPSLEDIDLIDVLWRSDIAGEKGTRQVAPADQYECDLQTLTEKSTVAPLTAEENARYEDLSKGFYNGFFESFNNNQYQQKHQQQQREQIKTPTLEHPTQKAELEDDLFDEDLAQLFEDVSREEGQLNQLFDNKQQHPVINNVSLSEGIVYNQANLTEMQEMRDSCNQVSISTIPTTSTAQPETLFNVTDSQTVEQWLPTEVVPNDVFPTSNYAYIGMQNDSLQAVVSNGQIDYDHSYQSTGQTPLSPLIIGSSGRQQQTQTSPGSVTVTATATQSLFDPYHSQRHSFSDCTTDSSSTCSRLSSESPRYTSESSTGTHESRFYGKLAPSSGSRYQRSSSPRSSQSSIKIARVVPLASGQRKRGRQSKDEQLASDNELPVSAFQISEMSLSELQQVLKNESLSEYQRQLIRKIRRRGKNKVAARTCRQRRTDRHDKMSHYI
# [10] = growth inhibition of yeast DHODH-expressing 3D7 parasites – SYBR Green, dry powder samples, dose response (AID 1159570); format: functional, cell-based;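 note: parasite growth measured after 72 hours of compound exposure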
# [11] = toxicity to human HepG2 hepatoma cells – cell-based, plate reader, dry powder samples, cytotoxicity control, dose response (AID 1159569); format: functional;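 note: inhibitor potency with signal falling toward the positive control level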
# [12] = Dd2 malaria parasite growth inhibition potency – SYBR Green, dry powder samples, dose response (AID 1159566); format: functional, cell-based;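 note: potency for growth inhibition with lower SYBR green DNA signal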
# [13] = growth inhibition of PfATP4-mutant resistant parasites – NITD609-resistant line, SYBR Green, dry powder, dose response (AID 1159571); format: functional, cell-based;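 note: parasites synchronized at ring stage by sorbitol before testing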
# [14] = cells
# [15] = viability of uninfected HEp-2 cells – cell-based, HTS, cytotoxicity control for RSV inhibitor project, dose response (AID 2410); format: functional; settings: human respiratory syncytial virus
# [16] = target: T3, Cytochrome P450 1A2 (Homo sapiens, UniProt P05177);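 note: PubChem cytochrome P450 panel assay, CYP1A2 panel member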
# T3 sequence (P05177 whole entry): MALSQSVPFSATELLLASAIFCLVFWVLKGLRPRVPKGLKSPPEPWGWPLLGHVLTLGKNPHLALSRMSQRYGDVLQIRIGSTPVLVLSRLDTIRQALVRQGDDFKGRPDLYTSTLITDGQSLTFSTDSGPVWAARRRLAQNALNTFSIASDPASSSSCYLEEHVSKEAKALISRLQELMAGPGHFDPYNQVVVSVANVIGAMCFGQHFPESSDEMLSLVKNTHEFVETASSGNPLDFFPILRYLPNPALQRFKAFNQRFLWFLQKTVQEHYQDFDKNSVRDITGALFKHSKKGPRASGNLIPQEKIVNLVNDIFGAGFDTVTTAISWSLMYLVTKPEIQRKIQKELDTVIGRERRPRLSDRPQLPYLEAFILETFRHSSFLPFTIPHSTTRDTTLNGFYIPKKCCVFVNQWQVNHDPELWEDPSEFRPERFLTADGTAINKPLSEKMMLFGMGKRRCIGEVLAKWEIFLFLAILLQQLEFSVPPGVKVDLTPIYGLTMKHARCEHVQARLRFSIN
# [17] = target: Estrogen receptor beta (Homo sapiens, UniProt Q92731); assay: blockers of SRC-3 recruitment to ERβ – biochemical, ELISA, streptavidin-HRP readout, orthogonal assay, confirmation (AID 1060)
# Estrogen receptor beta, sequence (Q92731 whole entry): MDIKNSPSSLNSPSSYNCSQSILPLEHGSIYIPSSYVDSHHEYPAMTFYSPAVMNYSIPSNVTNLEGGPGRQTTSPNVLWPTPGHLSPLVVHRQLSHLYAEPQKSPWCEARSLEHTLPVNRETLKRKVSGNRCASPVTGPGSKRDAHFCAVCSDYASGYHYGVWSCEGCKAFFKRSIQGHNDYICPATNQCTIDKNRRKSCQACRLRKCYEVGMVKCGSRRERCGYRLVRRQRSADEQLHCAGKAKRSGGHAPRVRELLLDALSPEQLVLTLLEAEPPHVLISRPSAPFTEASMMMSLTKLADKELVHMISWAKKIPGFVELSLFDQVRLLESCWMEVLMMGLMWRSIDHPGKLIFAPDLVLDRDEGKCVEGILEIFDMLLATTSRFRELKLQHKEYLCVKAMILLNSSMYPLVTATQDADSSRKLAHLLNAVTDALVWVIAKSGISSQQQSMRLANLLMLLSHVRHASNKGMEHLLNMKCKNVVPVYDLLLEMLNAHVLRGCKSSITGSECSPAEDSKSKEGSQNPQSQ
# [18] = target: Cytochrome P450 3A4 (Homo sapiens, UniProt P08684);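 note: CYP3A4 tested as one member of a cytochrome P450 panel screen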
# Cytochrome P450 3A4, sequence (P08684 whole entry, the tested form may be a part): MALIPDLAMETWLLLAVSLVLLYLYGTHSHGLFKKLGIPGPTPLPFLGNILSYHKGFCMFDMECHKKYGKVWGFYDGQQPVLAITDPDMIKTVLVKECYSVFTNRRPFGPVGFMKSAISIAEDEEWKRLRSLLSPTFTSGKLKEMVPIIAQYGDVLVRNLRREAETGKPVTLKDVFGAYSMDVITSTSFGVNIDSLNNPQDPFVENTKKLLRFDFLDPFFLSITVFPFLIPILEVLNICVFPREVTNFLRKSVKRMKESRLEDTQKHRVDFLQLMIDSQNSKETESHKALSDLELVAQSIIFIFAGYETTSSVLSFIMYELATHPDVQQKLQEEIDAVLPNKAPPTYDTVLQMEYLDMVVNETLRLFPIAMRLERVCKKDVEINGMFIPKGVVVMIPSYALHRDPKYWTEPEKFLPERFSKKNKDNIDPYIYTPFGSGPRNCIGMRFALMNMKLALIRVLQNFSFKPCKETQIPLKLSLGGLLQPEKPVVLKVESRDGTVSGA
# [19] = target: T4, RNA-binding protein pos-1 (Caenorhabditis elegans, UniProt G5EF15); assay: disruptors of C. elegans POS-1 RNA interaction – biochemical, fluorescence polarization, dose response (AID 1964);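 note: purified POS-1 fused to maltose binding protein made in E. coli; potency of compounds blocking POS-1 binding to fluorescent RNA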
# T4 sequence (G5EF15 whole entry): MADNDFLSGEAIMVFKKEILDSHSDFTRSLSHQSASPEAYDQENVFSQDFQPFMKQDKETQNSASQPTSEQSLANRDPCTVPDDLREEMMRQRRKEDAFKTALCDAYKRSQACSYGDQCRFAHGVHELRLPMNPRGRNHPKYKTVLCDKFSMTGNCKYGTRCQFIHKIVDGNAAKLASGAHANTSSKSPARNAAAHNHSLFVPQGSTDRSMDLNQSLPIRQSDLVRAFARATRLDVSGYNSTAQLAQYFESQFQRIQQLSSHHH
# [20] = target: T5, Zinc finger protein mex-5 (Caenorhabditis elegans, UniProt Q9XUB2); assay: potency of MEX-5 RNA-binding blockers – biochemical, C. elegans, fluorescence polarization, dose response (AID 1960)
# T5 sequence (Q9XUB2 whole entry): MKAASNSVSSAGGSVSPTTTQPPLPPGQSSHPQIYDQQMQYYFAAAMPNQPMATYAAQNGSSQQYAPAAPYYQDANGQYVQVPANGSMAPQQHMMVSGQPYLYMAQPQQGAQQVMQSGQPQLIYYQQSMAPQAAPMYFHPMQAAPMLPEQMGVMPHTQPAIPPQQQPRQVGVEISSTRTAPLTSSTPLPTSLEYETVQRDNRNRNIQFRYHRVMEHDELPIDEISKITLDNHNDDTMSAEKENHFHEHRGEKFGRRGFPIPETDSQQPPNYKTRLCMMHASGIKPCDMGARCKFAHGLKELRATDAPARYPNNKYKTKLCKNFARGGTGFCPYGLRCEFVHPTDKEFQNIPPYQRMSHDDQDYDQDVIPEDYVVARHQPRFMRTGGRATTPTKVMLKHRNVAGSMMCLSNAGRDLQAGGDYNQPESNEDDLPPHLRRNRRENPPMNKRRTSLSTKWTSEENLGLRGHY
# [21] = viability of PTEN-deleted HCT116 cells – cell-based, HCT116 PTEN knockout, dose response (AID 1047); format: functional;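 note: HCT116 colon tumor cells with PTEN knocked out; cells exposed to compound for 60 hours before readout; potency for loss of cell viability measured by luminescence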
# [22] = viability of HCT116 lacking mutant beta-catenin – cell-based, human colon tumor, dose response (AID 1045); format: functional;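 note: HCT116 colon tumor cells with beta catenin knocked out; cells exposed to compound for 60 hours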
structure (smiles),measurement,setting,value
CCOC(=O)N/N=C(/C)c1ccc([N+](=O)[O-])o1,EC50,[1],0.589 µM (active)
same,EC50,[2],> 30 µM (not active)
same,AC50,[3]; read-out: AC50,25.1 µM (inconclusive)
same,AC50,[4],inconclusive
COc1cccc(CN2CC3(C2)CN(C(=O)Nc2ccc(F)cc2)[C@@H](CO)c2c3c3ccc(OC)cc3n2C)c1,AC50,[5],2.98 µM (active)
same,AC50,[6],11.8 µM (active)
CN1CCN(c2nc(-c3cccc([N+](=O)[O-])c3)nc3ccccc23)CC1,AC50,[7],7.36 µM (active)
c1ccc(-c2ccc([C@@H]3[C@@H]4CN(Cc5cccnc5)C[C@H]3N4)cc2)cc1,AC50,[5],0.472 µM (active)
same,AC50,[6],9.31 µM (active)
O=C(Nc1nnc(-c2ccc(Br)cc2)o1)C1=COCCO1,IC50,[8],5.97 µM (active)
COc1cc(C(=O)NCCC(C)C)c([N+](=O)[O-])cc1OC,AC50,[4],inconclusive
CCN(CC)S(=O)(=O)c1cccc2c(N(C)C)cccc12,IC50,[9],> 100 µM (inactive)
same,AC50,[4],inconclusive
COc1ccccc1S(=O)(=O)N(C)C[C@@H]1Oc2cc(C#CCC(C)C)ccc2S(=O)(=O)N([C@@H](C)CO)C[C@H]1C,AC50,[10],0.521 µM (active)
same,AC50,[11],> 100 µM (inactive)
same,AC50,[5],0.652 µM (active)
same,AC50,[12],0.609 µM (active)
same,AC50,[13],0.331 µM (active)
CCCC(=O)Nc1ccc(-c2nc3cc(C)c(C)cc3o2)cc1,IC50,[14],48.2 µM (active)
N#Cc1nc(-c2cccc3ccccc23)oc1N,CC50,[15],> 50 µM (active)
same,IC50,[14],23.2 µM (active)
COc1ncc2nc(C)c(=O)n(CCC#N)c2n1,AC50,[3],inconclusive
same,AC50,[16],15.8 µM (inconclusive)
same,AC50,[4],inconclusive
COc1cccc(NC(=O)N2[C@H](CO)[C@H](c3ccccc3)[C@H]2CNCC(C)C)c1,AC50,[10],1.35 µM (active)
same,AC50,[11],85.6 µM (active)
same,AC50,[5],1.78 µM (active)
same,AC50,[12],0.974 µM (active)
same,AC50,[13],1.26 µM (active)
Cc1ccc(-c2ccc([C@@H]3[C@@H]4CN(Cc5cccnc5)C[C@H]3N4)cc2)cc1,AC50,[5],0.457 µM (active)
same,AC50,[6],9.99 µM (active)
CSc1ccccc1NC(=O)c1cc(C(C)C)on1,IC50,[8],27.9 µM (active)
COCCCn1c(Cc2csc(Nc3cccc(Cl)c3)n2)nnc1SCC(=O)OC,IC50,[17],17 µM (not active)
O=C(N/N=C/c1cccc(F)c1)c1csc2c1CCCC2,AC50,[18],15.8 µM (inconclusive)
same,AC50,[4],inconclusive
COc1ccc(C(=O)N2CC(c3ccc(Cl)cc3)CC2=O)cc1 (stereo not given),IC50,[14],31.5 µM (active)
CC1CCCC(C)N1CC(=O)Nc1sc2c(c1C#N)CCC2 (stereo not given),IC50,[17],22.5 µM (not active)
C/C=C/c1ccc([C@H]2[C@@H]3CN(C(=O)Nc4ccc(C(F)(F)F)cc4)C[C@H]2N3)cc1,AC50,[10],4.43 µM (active)
same,AC50,[11],25.8 µM (active)
same,AC50,[5],3.42 µM (active)
same,AC50,[12],5.42 µM (active)
same,AC50,[6],25.2 µM (active)
same,AC50,[13],4.31 µM (active)
CC(=N)/C(C#N)=C(/O)CSc1ncnc2ccccc12,EC50,[19],> 300 µM (not active)
same,EC50,[20],8.02 µM (active)
same,IC50,[14],17.9 µM (active)
OC(COc1ccc(C2C=CCC2)cc1)CN1CCCCC1 (stereo not given),EC50,[21],40.2 µM (active)
same,IC50,[17],13.1 µM (not active)
same,EC50,[22],32 µM (active)
O=C(c1ccccc1)N(Cc1ccco1)C1CCS(=O)(=O)C1 (stereo not given),AC50,[3]; read-out: AC50,31.6 µM (inconclusive)
same,AC50,[4],inconclusive
CSCCOC(=O)COc1ccc(/C=N/NC(=O)c2c(Cl)cnn2C)cc1,IC50,[8],4.7 µM (active)
NCc1csc(Nc2nncc3ccccc23)n1,AC50,[7],23.7 µM (active)
COc1ccc2c3c(n(C)c2c1)[C@@H](CO)N(Cc1ccccc1OC)CC31CCN(CC2CC2)CC1,AC50,[10],2.52 µM (active)
same,AC50,[11],34.5 µM (active)
same,AC50,[5],1.29 µM (active)
same,AC50,[12],0.522 µM (active)
same,AC50,[6],> 39 µM (inactive)
same,AC50,[13],1.07 µM (active)
c1ccc(-c2nnc(SCc3nnc(-c4cccs4)o3)o2)cc1,IC50,[8],30.4 µM (active)

# Reference: ChEMBL document CHEMBL1201862, “PubChem BioAssay data set” (2004)
